How the values were obtained:
Human alphaherpesvirus 2 = assay: Antiviral activity against Herpes simplex virus type-2; type: functional, organism-based
Hepatitis B virus = assay: Antiviral activity against Hepatitis-B virus 2.2.15(HBV); type: functional, organism-based; settings: HepG2 2.2.15
Human alphaherpesvirus 1 = assay: Antiviral activity against Herpes simplex virus type-1; type: functional, organism-based
[1] = Compound was evaluated for its toxicity by […] assay in PBM; type: functional, Homo sapiens
Vero = assay: Compound was evaluated for its toxicity by […] assay in vero cells; type: functional, cell-based; settings: Chlorocebus sabaeus
[2] = Antiviral activity against human immunodeficiency virus type-1 (HIV-1) in PBM cells; type: functional, cell-based; settings: PBMC
CCRF-CEM = assay: Compound was evaluated for its toxicity by […] assay in CEM; type: functional, cell-based; settings: Homo sapiens

Row | EC50 (Human alphaherpesvirus 2) | EC50 (Hepatitis B virus) | EC50 (Human alphaherpesvirus 1) | EC50 [2] | Structure (SMILES) | IC50 [1] | IC50 (Vero) | IC50 (CCRF-CEM)
1 | > 100 µM | > 10 µM | > 100 µM | > 100 µM | Nc1nc(=O)n([C@@H]2O[C@@H](CO)[C@H](O)C2(F)F)cc1I | > 100 µM | > 100 µM | > 100 µM
2 | > 100 µM | > 10 µM | > 100 µM | > 100 µM | O=c1[nH]c(=O)n([C@@H]2O[C@@H](CO)[C@H](O)C2(F)F)cc1F | > 100 µM | 100 µM | > 100 µM
3 | > 100 µM | > 20 µM | > 100 µM | > 100 µM | Nc1ncnc2c1ncn2[C@@H]1O[C@@H](CO)[C@H](O)C1(F)F | > 100 µM | > 100 µM | > 100 µM
4 | > 100 µM | > 20 µM | > 100 µM | 3.4 µM | Nc1ncnc2c1ncn2[C@H]1O[C@@H](CO)[C@H](O)C1(F)F | > 100 µM | > 100 µM | > 100 µM
5 | > 100 µM | > 10 µM | > 100 µM | > 100 µM | Nc1nc(=O)n([C@H]2O[C@@H](CO)[C@H](O)C2(F)F)cc1I | > 100 µM | > 100 µM | > 100 µM
6 | > 100 µM | > 10 µM | > 100 µM | > 100 µM | O=c1[nH]c(=O)n([C@H]2O[C@@H](CO)[C@H](O)C2(F)F)cc1F | > 100 µM | > 100 µM | > 100 µM

Row | Structure (SMILES) | EC50 (Human alphaherpesvirus 2) | EC50 (Hepatitis B virus) | EC50 (Human alphaherpesvirus 1) | EC50 [2] | IC50 [1] | IC50 (Vero) | IC50 (CCRF-CEM)
7 | Cc1cn([C@H]2C[C@H](N=[N+]=[N-])[C@@H](CO)O2)c(=O)[nH]c1=O [ZIDOVUDINE] | > 100 µM | > 10 µM | > 100 µM | 0.004 µM | > 100 µM | 29 µM | 13 µM

From ChEMBL document CHEMBL1130219, “Structure-activity relationships of 2'-deoxy-2',2'-difluoro-L-erythro-pentofuranosyl nucleosides” (J Med Chem, 1997)
